Assay [1] has as its system HK-2 cells. Kind of assay: Fibrotic gene expression in HK-2 cells after TGFβ insult. The format is cell-based. The settings on record: pre-treatment, TGFβ insult at 10 ng/mL. From the text:
(§1) ((N=3) One way Anova: Dunnett's test: **p<0.01, ***p<0.001; vs pathological control.)

The test system of assay [2] is Kupffer cells. Kind of assay: Gene expression in Kupffer cells after LPS-induced inflammation. Type of assay: cell-based, mouse. To be noted: compound 10 μM. The procedure:
[…] stimulated with LPS overnight […] (1 mg/mL stock solution in H2O, dispensed at 50 ng/mL in the well) final concentration. Cells treated with DMSO were used as control at the final concentration of 0.5% in medium. All the wells were normalized with DMSO at 0.5% final concentration. The supernatant was collected to measure cytokine secretion using a Bio-Plex Pro mouse cytokine 23-plex assay system (cat #M60009RDPD) using a Bio-Plex Instrument. The cells were washed once with PBS, and then lysed to extract total RNA for performing RT-PCR to evaluate ACMSD modulation of IL-10, SIRT1, and STAT3 gene expression.
Briefly, total RNA was extracted from the cells using the manufacturer's protocol for Qiagen RNeasy Plus Mini Kit (cat. 74134). The total RNA concentration was quantified using an Implen Instrument, and the purity was evaluated by measuring the ratio of A260/A280.
Total RNA (1 μg) was reverse transcribed using the manufacturer's protocol for SuperScript IV VILO Master Mix (ThermoFisher cat. #. 11756500). Real-time PCR was then performed in CFX 96 Real Time System (Bio-Rad) as follows: denaturation at 95° C. for 2 minutes, followed by 40 cycles at 95° C. for 10 s, and hybridization at 60° C. for 20 s. QPCR was performed using the 2× QuantiNova SYBR Green PCR Master Mix (Qiagen). Mouse β2 microglobulin (m β2M) was used as a reference gene.
Following inflammation induced by LPS (Kupffer cells treated with LPS 50 ng/mL […] incubation time) ACMSD inhibition, with compound I-34, reverses the changes in the expression of inflammatory modulators. Expression of pro-inflammatory genes is reduced (TNF-α, IL-6, and iNOS) and that of anti-inflammatory genes is increased (Arg-1, IL-10, and MRC2) by ACMSD inhibition.

The subject of assay [3] is HK-2 cells. The assay is described as follows: Gene expression in HK-2 cells after LPS stimulus. The format is cell-based. How it is done:
((N=3) One way Anova: Dunnett's test: **p<0.01 vs pathological control.)
ACMSD inhibition, with compound I-34, decreased inflammatory gene expression (IL-6 and TNF-α) in HK-2 cells following an 18 h stimulus with 30 μg/ml of LPS.

The subject of assay [4] is HK-2 proximal tubule cells. Kind of assay: Cisplatin-induced apoptosis (Caspases 3/7 activity) in HK-2 cells. Type of assay: cell-based. The settings on record: Cisplatin 50 μM; compound 10, 50 and 100 μM added 1 hr before Cisplatin injury.
From the text: as §1

The subject of assay [5] is 3D human liver microtissues. The assay is described as follows: Cytokine expression and secretion in 3D human liver microtissues (organoids). Type of assay: cell-based. To be noted: free fatty acids mix and LPS 10 μg/mL, compound 10 and 50 μM, dose-response manner. How it is done: 3D InSight™ Human Liver Microtissues (organoids) composed of multi-donor primary human hepatocytes in co-culture with Non-Parenchymal Cells (NPC), containing primary human Kupffer cells and primary Liver Endothelial Cells (LEC) were provided by Insphero, Switzerland. These human liver organoids to evaluate the anti-inflammatory effect of ACMSD inhibition.
The organoids were treated with free fatty acids (palmitic acid and oleic acid according to manufacturer's instructions) and lipopolisaccaride (LPS) in a diabetic medium (Insphero) at the concentration of 10 μg/mL to induce lipid accumulation in hepatocytes and pro-inflammatory cytokine secretion including; TNF-α, IL-6, IL-8, MCP-1, and MIP1α. Vehicle control solution was prepared as negative control. DMSO was maintained constant concentration of 0.1% total solution.
Two concentrations of compound I-34 (10 μM and 50 μM) were used and added together with the NASH stimuli mix. Cytokine secretion was measured in cell medium at day 4 following treatment using the Bio-Plex Pro Human Cytokine Screening Panel (Bio-Rad) according to manufacturer's instructions.
3D human liver microtissues were treated with vehicle (DMSO), a mix of free fatty acids and LPS (10 μg/mL) and mix together with two concentrations of compound I-34 (10 and 50 μM). […]

Assay [6] relates to mouse primary hepatocytes and murine stellate cells. The assay is described as follows: Gene expression in co-cultured mouse primary hepatocytes and murine stellate cells exposed to free fatty acids. Type of assay: cell-based. To be noted: co-culture exposed to free fatty acids (MIX). From the text: Mouse primary hepatocytes and murine stellate cells were co-cultured with FFA to induce fibrosis as observed in NASH patients.
(§2) (One way Anova: Dunnett's test: **p<0.01, ***p<0.001; vs pathological control.)

In assay [7] the test system is Kupffer cells. Kind of assay: Cytokine secretion in Kupffer cells exposed to LPS. The format is cell-based, mouse. The settings on record: LPS 24 h, compound 1 μM.
From the text: […] Cells treated with DMSO were used as control at the final concentration of 0.5% in medium. All the wells were normalized with DMSO at 0.5% final concentration. The supernatant was collected to measure cytokine secretion using a Bio-Plex Pro mouse cytokine 23-plex assay system (cat #M60009RDPD) using a Bio-Plex Instrument. The cells were washed once with PBS, and then lysed to extract total RNA for performing RT-PCR to evaluate ACMSD modulation of IL-10, SIRT1, and STAT3 gene expression.
All cytokine secretion values were normalized to the luminescent signal relative to the measuring of the cellular ATP (CellTiter-Glo cat #G7571)).
as §2

[8] abbreviates: 18 h stimulus with 30 μg/ml LPS, compound 100 μM.

As to `N#Cc1c(Cc2ccccc2)nc(SCc2cccc(-c3nnn[nH]3)c2)[nH]c1=O` [Compound I-34, 4-Benzyl-6-oxo-2-[3-(1H-tetrazol-5-yl)-benzylsulfanyl]-1,6-dihydro-pyrimidine-5 carbonitrile], the “Fibrotic gene expression (Fibronectin and TIMP2)” value in assay [1] is “decreased fibrotic gene expression (Fibronectin and TIMP2) in a dose response manner”. Further, in assay [2] (LPS 50 ng/mL), the “Expression of anti-inflammatory genes (Arg-1, IL-10, and MRC2)” value is “increased”; the “Expression of pro-inflammatory genes (TNF-α, IL-6, and iNOS)” value is “reduced”. Also, in assay [2] (LPS), the QPRT expression entry is “reversed LPS-induced reduction of QPRT expression”. For the same compound, in assay [3] (setting [8]), the ACMSD expression result is on record as “does not significantly affect”; the “Inflammatory gene expression (IL-6 and TNF-α)” value was “decreased”. Further, the “Inflammatory gene expression (IL-6 and TNF-α), dose response” value in assay [3] (18 h stimulus with 30 μg/ml LPS, several concentrations) was “decreased inflammatory gene expression (IL-6 and TNF-α) in a dose response manner”. Besides, the QPRT expression entry in assay [3] (LPS 18 h, compound 100 μM) is “reversed LPS-induced reduction of QPRT expression”. Also, the “Cisplatin-induced apoptosis (Caspases 3/7 activity)” value in assay [4] is listed as “provides protection”. Further, the “Cytokine secretion (hepatic inflammation)” value in assay [5] (day 4) is reported as “reducing”. In assay [5], the “Cytokine expression (hepatic inflammation)” value is reported as “reducing”. The “Expression of pro-fibrotic and pro-inflammatory genes” value in assay [6] is “decreased”. Moreover, in assay [7], the “Secretion of pro inflammatory cytokines (IL-1β, IL-6, TNF-α)” value was “decreased”.

For the origin of these results see patent US20240390371A1, “HETEROARYL AND HETEROCYCLIC COMPOUNDS FOR TREATING ACUTE INFLAMMATION” (TES Pharma S.r.l., priority 2023, published 2024).
